# Results as given in ChEMBL document CHEMBL5537154, “Smart glypican-3-targeting peptide-chlorin e6 conjugates for targeted photodynamic therapy of hepatocellular carcinoma” (Eur J Med Chem, 2024).
# Calls of active or inactive are those of the source. The rule behind the calls is not given here. Peptide text beside a SMILES is read from it.
# How the values were obtained:
# [1] = test system: HepG2; assay: Antiproliferative activity against human HepG2 cells under dark condition by CCK8 assay; type: functional, cell-based
# [2] = test system: HepG2; assay: Antiproliferative activity against human HepG2 cells under 10 J/cm2 light irradiation at 660 nm by CCK8 assay; type: functional, cell-based; conditions: HepG2, light or radiation study
# [3] = test system: Huh-7; assay: Antiproliferative activity against human Huh-7 cells under dark condition by CCK8 assay; type: functional, cell-based
# [4] = test system: MCF7; assay: Antiproliferative activity against human MCF7 cells under dark condition by CCK8 assay; type: functional, cell-based
# [5] = test system: MCF7; assay: Antiproliferative activity against human MCF7 cells under 10 J/cm2 light irradiation at 660 nm by CCK8 assay; type: functional, cell-based; conditions: MCF7, light or radiation study
# [6] = Antiproliferative activity against human HUVEC cells under dark condition by CCK8 assay; type: toxicity, cell-based
# [7] = Antiproliferative activity against human HUVEC cells under 10 J/cm2 light irradiation at 660 nm by CCK8 assay; type: toxicity, cell-based
# [8] = target: Glypican-3 (Homo sapiens, UniProt P51654); assay: Binding affinity to GPC3 (unknown origin) assessed as dissociation constant by fluorescence polarization assay
# [9] = Photostability of compound under 250 mW/cm2 light irradiation at 660 nm incubated for 10 mins by UV spectrophotometry; type: physicochemical; conditions: 0.66 µM
# [10] = Aggregation property of compound in PBS; type: physicochemical; conditions: buffer
# [11] = […] assessed as decrease in fluorescence intensity of DMA; type: functional
# [12] = Drug uptake in human MCF7 cells incubated for 2 hrs by fluorescence based assay; type: ADME, cell-based; conditions: mcf7, 2 h
# [13] = Drug uptake in human HepG2 cells at 500 nM incubated for 2 hrs by flow cytometry; type: ADME, cell-based; conditions: hepg2, 2 h, 0.5 µM
# [14] = Drug uptake in human MCF7 cells at 10 uM incubated for 4 hrs by confocal microscopy; type: ADME, cell-based; conditions: mcf7, 4 h
# [15] = Drug uptake in human HepG2 cells at 10 uM by confocal microscopy; type: ADME, cell-based; conditions: hepg2, 10 µM, TDE = time-dependent effect, time 4-24 hrs
# [16] = Drug uptake in human Huh-7 cells at 10 uM by confocal microscopy; type: ADME, cell-based; conditions: huh-7, 10 µM, TDE = time-dependent effect, time 4-24 hrs
# [17] = test system: HepG2; assay: Induction of apoptosis in human HepG2 cells assessed as late apoptotic cells at 2.5 uM incubated for 24 hrs followed by 10 J/cm2 of light irradiation at 660 nm measured after 24 hrs by Annexin V-FITC/PI staining based flow cytometry relative to control; type: functional; conditions: time 48 hrs
# [18] = test system: HepG2; assay: Induction of apoptosis in human HepG2 cells assessed as necrotic cells at 2.5 uM incubated for 24 hrs followed by 10 J/cm2 of light irradiation at 660 nm measured after 24 hrs by Annexin V-FITC/PI staining based flow cytometry relative to control; type: functional; conditions: time 48 hrs
# [19] = test system: HepG2; assay: Induction of apoptosis in human HepG2 cells assessed as early apoptotic cells under dark condition at 2.5 uM incubated for 24 hrs by Annexin V-FITC/PI staining based flow cytometry relative to control; type: functional
# [20] = test system: HepG2; assay: Induction of apoptosis in human HepG2 cells assessed as early apoptotic cells at 5 uM incubated for 24 hrs followed by 10 J/cm2 of light irradiation at 660 nm measured after 24 hrs by Annexin V-FITC/PI staining based flow cytometry relative to control; type: functional; conditions: time 48 hrs
# [21] = test system: HepG2; assay: Induction of apoptosis in human HepG2 cells assessed as early apoptotic cells under dark condition at 5 uM incubated for 24 hrs by Annexin V-FITC/PI staining based flow cytometry relative to control; type: functional
# [22] = test system: HepG2; assay: Induction of apoptosis in human HepG2 cells assessed as late apoptotic cells under dark condition at 5 uM incubated for 24 hrs by Annexin V-FITC/PI staining based flow cytometry relative to control; type: functional
# [23] = Drug uptake in lysosome of human Huh-7 cells at 2 uM incubated for 24 hrs by lyso tracker green DND-26 probe based laser confocal microscopy; type: ADME, subcellular; conditions: huh-7, 24 h
# [24] = Drug uptake in endoplasmic reticulum of human Huh-7 cells at 2 uM incubated for 24 hrs by ER tracker green probe based laser confocal microscopy; type: ADME, subcellular; conditions: huh-7, 24 h
# [25] = test system: Huh-7; assay: Induction of cell cycle arrest at S phase in human Huh-7 cells at 1 uM under 10 J/cm2 light irradiation at 660 nm by flow cytometry; type: functional, cell-based
# [26] = Drug distribution in tumor of BALB/C nude mouse model xenografted with human HepG2 cells at 1 to 2 uM/kg, iv measured for 1 to 4 hrs by fluorescence imaging analysis; type: ADME, organism-based, Neoplasm; conditions: in vivo, dose lower 1 µM/Kg, time lower 1 hrs, dose upper 2 µM/Kg, time upper 4 hrs
# [27] = Drug distribution in kidney of BALB/C nude mouse model xenografted with human HepG2 cells at 1 to 2 uM/kg, iv measured for 1 to 4 hrs by fluorescence imaging analysis; type: ADME, organism-based; conditions: in vivo, dose lower 1 µM/Kg, time lower 1 hrs, dose upper 2 µM/Kg, time upper 4 hrs
# [28] = Drug distribution in tumor of BALB/C nude mouse model xenografted with human Huh-7 cells at 1 to 2 uM/kg, iv measured for 1 to 6 hrs by fluorescence imaging analysis; type: ADME, organism-based, Neoplasm; conditions: in vivo, dose lower 1 µM/Kg, time lower 1 hrs, dose upper 2 µM/Kg, time upper 6 hrs
# [29] = test system: HepG2; assay: Antitumor activity in human HepG2 cells xenografted in BALB/C nude mouse model assessed as tumor growth inhibition at 1 to 2 uM/kg, iv administered every two days for 21 days along with 250 mW/cm2 light irradiation at 660 nm for 10 mins at 1 hr post-compound administration relative to control; type: functional; conditions: dose 1-2 µM/Kg, time 505.166 hrs, 505.17 h, at 1 to 2 µmol/kg
# [30] = Toxicity in BALB/C nude mouse model xenografted with human HepG2 cells assessed as body weight loss at 1 to 2 uM/kg, iv administered every two days for 21 days along with 250 mW/cm2 light irradiation at 660 nm for 10 mins at 1 hr post-compound administration; type: organism-based; conditions: in vivo, 505.17 h, dose 1-2 µM/Kg, time 505.166 hrs
# [31] = Toxicity in BALB/C nude mouse model xenografted with human HepG2 cells assessed as change in heart weight at 1 to 2 uM/kg, iv administered every two days for 21 days along with 250 mW/cm2 light irradiation at 660 nm for 10 mins at 1 hr post-compound administration; type: organism-based; conditions: in vivo, 505.17 h, dose 1-2 µM/Kg, time 505.166 hrs
# [32] = Toxicity in BALB/C nude mouse model xenografted with human HepG2 cells assessed as change in liver weight at 1 to 2 uM/kg, iv administered every two days for 21 days along with 250 mW/cm2 light irradiation at 660 nm for 10 mins at 1 hr post-compound administration; type: organism-based; conditions: in vivo, 505.17 h, dose 1-2 µM/Kg, time 505.166 hrs
# [33] = Toxicity in BALB/C nude mouse model xenografted with human HepG2 cells assessed as change in kidney weight at 1 to 2 uM/kg, iv administered every two days for 21 days along with 250 mW/cm2 light irradiation at 660 nm for 10 mins at 1 hr post-compound administration; type: organism-based; conditions: in vivo, 505.17 h, dose 1-2 µM/Kg, time 505.166 hrs
# [34] = test system: MCF7; assay: Antitumor activity against human MCF7 cells xenografted in BALB/C nude mouse model assessed as decrease in tumor growth at 1 to 2 uM/kg, iv administered every two days for 21 days along with 250 mW/cm2 light irradiation at 660 nm for 10 mins at 1 hr post-compound administration; type: functional, organism-based; conditions: dose 1-2 µM/Kg, time 505.166 hrs
# Chain of Glypican-3 (P51654 25-358 limits assumed): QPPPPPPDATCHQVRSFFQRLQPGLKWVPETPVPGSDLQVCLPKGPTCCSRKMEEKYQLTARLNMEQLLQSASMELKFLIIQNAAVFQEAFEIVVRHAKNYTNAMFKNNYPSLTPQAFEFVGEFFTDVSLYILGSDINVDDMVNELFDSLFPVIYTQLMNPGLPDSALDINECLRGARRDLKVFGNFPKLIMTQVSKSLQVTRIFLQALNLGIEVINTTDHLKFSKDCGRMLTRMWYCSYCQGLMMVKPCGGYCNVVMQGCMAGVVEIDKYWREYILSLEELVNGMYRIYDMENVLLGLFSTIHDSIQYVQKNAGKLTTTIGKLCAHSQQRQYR
# Chain of Glypican-3 (P51654 359-554 limits assumed): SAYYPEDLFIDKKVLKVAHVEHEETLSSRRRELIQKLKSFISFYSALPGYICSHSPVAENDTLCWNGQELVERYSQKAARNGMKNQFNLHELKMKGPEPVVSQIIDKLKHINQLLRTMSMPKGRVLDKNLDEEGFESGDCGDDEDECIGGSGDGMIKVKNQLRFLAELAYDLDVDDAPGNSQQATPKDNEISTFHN
smiles,measurement,setting,value
C=Cc1c(C)c2cc3nc(c(CC(=O)O)c4[nH]c(cc5nc(cc1[nH]2)C(C)=C5CC)c(C)c4C(=O)NCCCC(=O)N[C@@H](CC(=O)O)C(=O)N[C@@H](Cc1cnc[nH]1)C(=O)N[C@@H](CC(C)C)C(=O)N[C@@H](C)C(=O)N[C@@H](CO)C(=O)N[C@@H](CC(C)C)C(=O)N[C@@H](Cc1c[nH]c2ccccc12)C(=O)N[C@@H](Cc1c[nH]c2ccccc12)C(=O)NCC(=O)N[C@H](C(=O)N[C@@H](CCC(=O)O)C(=O)N[C@@H](CC(C)C)C(=O)O)[C@@H](C)O)[C@@H](CCC(=O)O)[C@@H]3C (HELM PEPTIDE1{[C=Cc1c(C)c2cc3nc(c(CC(=O)O)c4[nH]c(cc5nc(cc1[nH]2)C(C)=C5CC)c(C)c4C(=O)[*:2])[C@@H](CCC(=O)O)[C@@H]3C].[O=C(CCCN[*:1])[*:2]].D.H.L.A.S.L.W.W.G.T.E.L}$$$$V2.0),IC50,[1],> 100 µM
same,IC50,[2],0.82 µM
same,IC50,[3],> 100 µM
same,IC50,[4],> 100 µM
same,IC50,[5],> 10 µM
same,IC50,[6],> 200 µM
same,IC50,[7],> 10 µM
same,Kd,[8],0.38 µM
same,Stability,[9],Stable
same,Activity,[10],Active
same,Activity,[11],Active
same,Drug uptake,[12],Not Active
same,Drug uptake,[13],Dose-Dependent Effect
same,Drug uptake,[14],Not Active
same,Drug uptake,[15],Tde
same,Drug uptake,[16],Tde
same,Activity,[17],17.8%
same,Activity,[18],74%
same,Activity,[19],2.7%
same,Activity,[20],8.4%
same,Activity,[21],2.3%
same,Activity,[22],1.7%
same,Drug uptake,[23],Active
same,Drug uptake,[24],Active
same,Activity,[25],Active
same,Drug uptake,[26],Active
same,Drug uptake,[27],Not Active
same,Drug uptake,[28],Active
same,TGI,[29],100%
same,Activity,[30],Non-Toxic
same,Activity,[31],Non-Toxic
same,Activity,[32],Non-Toxic
same,Activity,[33],Non-Toxic
same,Activity,[34],Active
